# Assay results as given in patent publication US5589506A, “Stilbene derivative and stilbene analog derivative, and use thereof” (Morinaga Milk Industry Co., Ltd., priority 1993, dated 1996).
# Like-named read-outs stand apart in the source and are kept apart here.
# Tests used:
# [1] = biological target: T1, 5-lipoxygenase (Rattus norvegicus, UniProt P12527); experiment: 5-lipoxygenase inhibition assay (rat basophilic leukemia cell RBL-1 enzyme solution); format: biochemical; conditions: Table 3; read-out: IC50 values of 5-lipoxygenase (mole)
# T1 construct: Cultured cells were collected and washed twice; host or cells: RBL-1 rat basophilic leukemia cells (sonicate, 10,000 x g supernatant)
# T1 sequence (P12527 1-673): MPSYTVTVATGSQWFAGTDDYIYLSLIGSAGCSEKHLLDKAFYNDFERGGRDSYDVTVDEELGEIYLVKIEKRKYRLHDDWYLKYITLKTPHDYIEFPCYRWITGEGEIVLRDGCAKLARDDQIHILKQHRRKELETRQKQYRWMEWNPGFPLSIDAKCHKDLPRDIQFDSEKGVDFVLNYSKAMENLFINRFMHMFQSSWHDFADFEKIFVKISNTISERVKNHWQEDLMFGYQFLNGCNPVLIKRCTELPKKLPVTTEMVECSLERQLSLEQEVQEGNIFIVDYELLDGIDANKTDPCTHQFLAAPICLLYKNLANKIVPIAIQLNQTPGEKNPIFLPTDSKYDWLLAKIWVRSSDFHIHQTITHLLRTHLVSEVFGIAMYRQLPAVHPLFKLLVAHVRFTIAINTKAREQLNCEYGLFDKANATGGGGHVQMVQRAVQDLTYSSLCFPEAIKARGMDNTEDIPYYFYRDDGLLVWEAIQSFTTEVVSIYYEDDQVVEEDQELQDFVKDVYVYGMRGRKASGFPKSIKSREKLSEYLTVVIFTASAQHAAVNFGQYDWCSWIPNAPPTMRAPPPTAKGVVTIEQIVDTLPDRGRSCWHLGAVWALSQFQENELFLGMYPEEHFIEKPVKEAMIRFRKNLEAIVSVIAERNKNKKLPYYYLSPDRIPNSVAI
# Description: The test was carried out to examine the selectivity toward 12-lipoxgenase of the compounds of the first embodiment in the present invention.
# i) Preparation of 5-lipoxgenase enzyme solution
# Rat basophilic leukemia cells (RBL-1, ATCC CRL1378) were cultured in Dulbecco modified Eagle's medium containing 10% new-born bovine serum.
# Cultured cells were collected and washed twice with a 50 mM Tris-buffered saline (containing 154 mM sodium chloride, pH: 7.4, hereinafter described as TBS). The cell suspension (4×10^7 cells/ml) was then sonicated and centrifuged at 10,000×g for 10 minutes.
# The resultant supernatant was used to prepare an assay solution.
# i) Procedure for 5-lipoxgenase inhibition assay
# To an aliquot (15 μl) of the enzyme solution (40 mU/ml equivalent) was added 185 μl of TBS, 50 μl of a 2 mM adenosine triphosphate in TBS, 50 μl of a 12 mM calcium chloride in TBS, 1 μl of a 3 mM indomethacin in ethanol solution, 1 μl of an aqueous 300 mM reduced glutathione solution, and 3 μl of varied concentrated test compounds solution in ethanol. The resultant mixture was incubated at 37° C. for 5 minutes. Subsequently, 3 μl of a 2.5 mM arachidonic acid solution in ethanol was added to incubate the mixture for 2 minutes at 37° C. The reaction was ceased by the addition of 600 μl of methanol After being centrifuged at 10,000×g for 5 minutes, 5-hydroxyeicosatetraenoic acid recovered in the supernatant was separated with a reverse phase high-performance liquid chromatography equipped with a C-18 column and measured the absorption of diene at 234 nm to quantify the activity of the enzyme. […]
# The enzyme activities of the compounds of the present invention prepared according to the same procedure as in Examples 54-58 to be described later and baicalein as sample substances at varied concentrations were measured according to the above-mentioned method, and mole concentrations showing 50% 12-lipoxgenase and 5-lipoxgenase inhibition ratios (hereinafter may be described as IC50 values) were obtained from the measured values of the sample substances.
# [2] = biological target: T2, 12-lipoxygenase (Rattus norvegicus, UniProt F1LQ70); experiment: 12-lipoxygenase inhibition assay (rat platelet enzyme solution); format: biochemical, Sprague Dawley male rat; conditions: for inhibition at 1 µM: 10^-6 (mole concentration); for inhibition at 0.1 µM: 10^-7 (mole concentration)
# T2 construct: The pelleted platelets were rinsed twice with a washing buffer; from tissue; host or cells: platelets of Sprague Dawley male rat (sonicate, 100,000 x g supernatant)
# T2 sequence (F1LQ70 1-663): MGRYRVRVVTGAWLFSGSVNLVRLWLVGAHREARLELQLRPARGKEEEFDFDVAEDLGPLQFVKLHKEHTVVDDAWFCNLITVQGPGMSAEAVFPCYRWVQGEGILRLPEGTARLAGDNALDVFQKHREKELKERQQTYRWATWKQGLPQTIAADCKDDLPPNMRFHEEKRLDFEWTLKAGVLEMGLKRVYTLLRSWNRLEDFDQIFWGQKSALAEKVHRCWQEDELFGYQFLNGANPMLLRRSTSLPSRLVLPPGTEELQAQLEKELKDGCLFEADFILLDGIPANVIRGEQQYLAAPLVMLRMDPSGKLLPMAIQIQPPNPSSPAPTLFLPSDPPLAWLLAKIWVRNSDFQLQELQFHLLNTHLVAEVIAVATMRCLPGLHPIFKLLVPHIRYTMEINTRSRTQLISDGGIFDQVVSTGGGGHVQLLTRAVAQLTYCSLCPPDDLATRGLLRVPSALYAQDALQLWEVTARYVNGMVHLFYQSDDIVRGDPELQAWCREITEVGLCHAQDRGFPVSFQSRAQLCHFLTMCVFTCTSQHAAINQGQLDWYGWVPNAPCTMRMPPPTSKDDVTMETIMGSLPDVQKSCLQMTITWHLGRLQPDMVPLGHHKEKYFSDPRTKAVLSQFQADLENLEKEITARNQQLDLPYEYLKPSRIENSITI
# Description: The test was performed to examine inhibitory effect of various compounds on the 12-lipoxyganase activity.
# 1) Preparation of Enzyme Solution
# A Sprague Dawley male rat was anesthetized with ether and bled from abdominal aorta using a syringe filled with about one-tenth volume of 3.8% sodium citrate. Blood was centrifuged at 180×g for 15 minutes at room temperature to pellet sanguineous platelet blood plasma. The resultant supernatant was again centrifuged at 1800×g for 10 minutes at 4° C. The pelleted platelets were rinsed twice with a washing buffer (50 mM Tris-hydrochloric acid buffer containing 154 mM sodium chloride and 2 mM EDTA, pH: 7.4). The platelets were then suspended in one-twentieth volume of a resuspension buffer (50 mM Tris-hydrochloric acid buffer containing 154 mM sodium chloride and 5.5 mM glucose, pH: 7.4). The platelets were then sonicated at 4° C. and centrifuged at 100,000×g for 30 minutes to obtain a supernatant as a 12-lipoxgenaseenzyme solution.
# 2) Procedure for 12-lipoxgenase inhibition assay
# The enzyme solution described above was diluted with the resuspension buffer above mentioned to prepare an assay solution so as to include about 2 mU/ml of 12-lipoxygenase. […] The resultant mixture was incubated at 37° C. for 5 minutes. Subsequently, 3 μl of a 2.5 mM arachidonic acid solution in ethanol was added to incubate with for another 5 minutes at 37° C., then the reaction was ceased by the addition of 600 μl of methanol. After being centrifuged at 10,000×g for 5 minutes, 12-hydroxyeicosatetraenoic acid recovered in the supernatant was separated with a reverse phase high-performance liquid chromatography equipped with a […] the activity of 12 lipoxygenase.
# The enzyme solution was prepared according to the same manner as in Test Example 1.
# It was prepared according to the same procedure as in Test Example 1.
# Measurement was performed according to the same procedure as in Test Example 1.
# The measurement was performed according to the same procedure as in Test Example 1.
# [3] = Table 3, read-out: IC50 values of 12-lipoxygenase (mole)
# [4] = 10^-5 (mole concentration), 10 µM
# [5] = 10^-5 (mole concentration), read-out: 12-Lipoxygenase inhibition ratio (%)
# [6] = read-out: 12-Lipoxygenase inhibition ratio (%)
# [7] = Table 2, read-out: 12-Lipoxygenase IC50 values
# [8] = Table 12, deacylated compounds, read-out: 12-Lipoxygenase inhibitory effect of deacylated compounds (IC50 values)
structure (smiles),measurement,setting,value
"Cc1cccc(C=C(C#N)c2ccc(O)c(O)c2)c1 [Bz. 25, α-cyano-3'-methyl-3,4-dihydroxystilbene]",IC50,[1],44 nM
same,IC50,[2]; [3],7 nM
"N#CC(=Cc1cccc(O)c1)c1ccc(Cl)cc1 [Comp. Ex. 1, reference compound]",12-Lipoxygenase inhibition ratio (%),[2]; [4],7%
same,inhibition at 10 µM,[2]; [5],< 10%
same,inhibition at 1 µM,[2]; [6],1%
same,inhibition at 0.1 µM,[2]; [6],0%
"N#CC(=Cc1ccc(O)cc1)c1ccc(Cl)cc1 [Comp. Ex. 2, reference compound]",12-Lipoxygenase inhibition ratio (%),[2]; [4],10%
same,inhibition at 10 µM,[2]; [5],< 10%
same,inhibition at 1 µM,[2]; [6],2%
same,inhibition at 0.1 µM,[2]; [6],5%
"COc1ccc(C=C(C#N)c2ccc(Cl)cc2)cc1O [Comp. Ex. 3, reference compound]",12-Lipoxygenase inhibition ratio (%),[2]; [4],10%
same,inhibition at 10 µM,[2]; [5],< 10%
same,inhibition at 1 µM,[2]; [6],1%
same,inhibition at 0.1 µM,[2]; [6],0%
"COc1cc(C=C(C#N)c2ccc(Cl)cc2)ccc1O [Comp. Ex. 4, reference compound]",12-Lipoxygenase inhibition ratio (%),[2]; [4],2%
same,inhibition at 1 µM,[2]; [6],0%
same,inhibition at 0.1 µM,[2]; [6],0%
"Oc1ccc(/C=C/c2ccccc2)cc1O [Comp. Ex. 5, reference compound]",12-lipoxygenase inhibitory effect (in words),[2],remarkably poor compared with that of the compound (Example 1)
same,IC50,[2]; [7],1200 nM
"CCOC(=O)C(=Cc1ccc(O)c(O)c1)c1ccccc1 [Comp. Ex. 6, reference compound]",12-lipoxygenase inhibitory effect (in words),[2],remarkably poor compared with that of the compound (Example 1)
same,IC50,[2]; [7],160 nM
"N#CC(=Cc1ccc(O)c(O)c1)c1ccc(O)cc1 [Comp. Ex. 7, reference compound]",IC50,[2]; [7],230 nM
"N#CC(=Cc1ccc(O)c(O)c1)c1ccc(O)c(O)c1 [Comp. Ex. 8, reference compound]",IC50,[2]; [7],300 nM
"N#CC(=Cc1ccc(C(=O)O)cc1)c1ccc(O)c(O)c1 [Comp. Ex. 9, reference compound]",IC50,[2]; [7],5000 nM
"N#CC(=Cc1ccc(O)c(O)c1)c1ccc(Cl)cc1 [Ex. 1, α-cyano-4-chloro-3',4'-dihydroxystilbene]",IC50,[1],38 nM
same,inhibition at 10 µM,[2]; [5],97%
same,inhibition at 1 µM,[2]; [6],97%
same,inhibition at 0.1 µM,[2]; [6],98%
same,12-Lipoxygenase inhibition ratio (%),"[2]; 10^-8 (mole concentration), 0.01 µM",73%
same,12-Lipoxygenase inhibition ratio (%),"[2]; 10^-8 (mole concentration), 0.01 µM, listed as Example 1, 0.01 µM",73%
same,inhibition at 0.001 µM,"[2]; 10^-9 (mole concentration), read-out: 12-Lipoxygenase inhibition ratio (%)",1%
same,IC50,[2]; [7],4.2 nM
same,IC50,[2]; [3],4.2 nM
same,IC50,[2]; [8],4.2 nM
"N#CC(=Cc1ccc(Cl)cc1)c1ccc(O)c(O)c1 [Ex. 2, α-cyano-4'-chloro-3,4-dihydroxystilbene]",IC50,[1],56 nM
same,IC50,[2]; [3],1.8 nM
same,IC50,[2]; [8],1.8 nM
N#CC(=Cc1ccc(O)c(O)c1)c1ccc(F)cc1 [Ex. 3],IC50,[1],94 nM
same,IC50,[2]; [3],4.8 nM
N#CC(=Cc1ccc(O)c(O)c1)c1ccc(Br)cc1 [Ex. 4],IC50,[1],15 nM
same,IC50,[2]; [3],3.6 nM
"N#CC(=Cc1ccc(O)c(O)c1)c1ccc(I)cc1 [Ex. 5, α-cyano-4-iodo-3',4'-dihydroxystilbene]",IC50,[1],20 nM
same,IC50,[2]; [3],5.4 nM
same,IC50,[2]; [8],5.4 nM
Cc1ccc(C(C#N)=Cc2ccc(O)c(O)c2)cc1 [Ex. 6],IC50,[1],48 nM
same,IC50,[2]; [3],4.5 nM
N#CC(=Cc1ccc(O)c(O)c1)c1ccccc1 [Ex. 9],IC50,[1],110 nM
same,IC50,[2]; [3],15 nM
CCc1ccc(C(C#N)=Cc2ccc(O)c(O)c2)cc1 [Ex. 11],IC50,[1],46 nM
same,IC50,[2]; [3],5.8 nM
"N#CC(=Cc1ccc(O)c(O)c1)c1cc(Br)cs1 [Ex. 13, α-(3,4-dihydroxybenzylidene)-4-bromothiophene-2-acetonitrile]",IC50,[1],36 nM
same,IC50,[2]; [3],3 nM
same,IC50,[2]; [8],3 nM
N#CC(=Cc1ccc(O)c(O)c1)c1ccc(Br)s1 [Ex. 14],IC50,[1],26 nM
same,IC50,[2]; [3],3.6 nM
"N#CC(=Cc1cc(O)c(O)c(O)c1)c1ccc(Cl)cc1 [Ex. 15, α-cyano-4-chloro-3',4',5'-trihydroxystilbene]",IC50,[1],56 nM
same,IC50,[2]; [3],14 nM
N#CC(=Cc1ccc(O)c(O)c1)c1ccc(C#N)cc1 [Ex. 16],IC50,[1],100 nM
same,IC50,[2]; [3],28 nM
"COc1ccc(C(C#N)=Cc2ccc(O)c(O)c2)cc1 [Formula 55b, α-cyano-4-methoxy-3',4'-dihydroxystilbene]",IC50,[2]; [8],6 nM
